Read-outs that look alike come from different tables or passages of the source.
Columns and labels:
HCT116 = experiment: MTS cell viability assay, HCT116; assay type: cell-based; details: for SI HCT116: SI = (IC50 for normal cell line FHC)/(IC50 for HCT116)
Protocol: (§1) The newly synthesized compounds were subjected to assessment for their potential to inhibit the proliferation of various cancer cell lines including colorectal carcinoma (HCT116), ovarian cancer (OVCAR 10), and human metastatic melanoma (1205Lu), and non-cancerous fetal human cells (FHC). […] In order to ascertain whether compound 4j is selectively cytotoxic or anti-proliferative to cancer cells, it was tested for non-cancerous fetal human cells (FHC).
(§2) HCT116, OVCAR 10, 1205Lu, and FHC cell lines were procured from American Type Culture Collection (ATCC, Manassas, VA, USA). All the cells were grown based on the recommendations by ATCC at 37 °C in a humidified atmosphere with CO2. Stock solutions of compounds were made up and delivered to cells in DMSO.
(§3) The cell viability assay was performed as described earlier[27] HCT116, OVCAR 10, 1205Lu, and FHC adherent cell lines were seeded in 96-well plate at a density of 5 × 10^3 cells per well. Next day, the cells were treated with the respective compounds at different doses for 48 h in triplicates. At the end of the treatment duration, the media were removed and fresh media were added containing 20 μL of [3-(4,5-dimethylthiazol-2-yl)-5-(3-carboxymethoxyphenyl)-2-(4-sulfophenyl)-2H-tetrazolium] (MTS) reagent per well (Promega, WI, USA). The optical densities of the solubilized formazan crystals were read with a 96-well multi-scanner (Dynex Technologies, MRX Revelation; Chantilly, VA, USA) at 490 nm and 630 nm, and the normalized percent viability was calculated. The IC50 values were calculated using non-linear regression (curve fit).

OVCAR 10 = experiment: MTS cell viability assay, OVCAR 10; assay type: cell-based; details: for SI OVCAR10: SI = (IC50 for normal cell line FHC)/(IC50 for OVCAR10)
Protocol: as §1, §2, §3

1205Lu = experiment: MTS cell viability assay, 1205Lu; assay type: cell-based, human; details: for SI 1205Lu: SI = (IC50 for normal cell line FHC)/(IC50 for 1205Lu)
Protocol: as §1, §2, §3

FHC = experiment: MTS cell viability assay, non-cancerous FHC; assay type: cell-based; details: 48 h treatment, non-cancerous fetal human cells, read-out: IC50 (μM) ± SD FHC
Protocol: as §1, §2, §3

HCT-116 cells [1] = experiment: Annexin V/7-AAD apoptosis assay; assay type: cell-based; details: 10 μM
Protocol: (§4) We further carried out apoptosis experiments utilizing the caspase-3/7 7-AAD and Annexin V/7-AAD assays to evaluate the mode of cell death.
(§5) The apoptosis assay using Muse Annexin V/7-AAD and Caspase 3/7 7-AAD assay kit (EMD Millipore, Darmstadt, Germany) was performed following manufacturer's protocol as described earlier.[28] Briefly, the cells were seeded in 6-well plate at a density of 1 × 10^5 cells per well. After 24 h incubation, the cells were treated with 10 μM of compound 4j. The cells were incubated for 24 and 48 h. At the end of the treatment period, the cells were harvested using enzyme free cell dissociation buffer. The samples were treated with the respective dyes based on the manufacturer's protocol. The samples were further analysed in Muse Cell Analyzer (Merck Millipore, Darmstadt, Germany).

HCT-116 cells [2] = experiment: Caspase 3/7 7-AAD apoptosis assay; assay type: cell-based; details: 10 μM
Protocol: as §4, §5

[3] = Homo sapiens, HCT-116, MTS assay, 48 h treatment, colorectal carcinoma, read-out: IC50 (μM) ± SD HCT116
[4] = MTS assay, 48 h treatment, ovarian cancer, read-out: IC50 (μM) ± SD OVCAR 10
[5] = 1205Lu, MTS assay, 48 h treatment, human metastatic melanoma, read-out: IC50 (μM) ± SD 1205Lu
[6] = Homo sapiens, HCT-116, repeated in docking table, unit inferred, read-out: IC50 HCT116
[7] = repeated in docking table, unit inferred, read-out: IC50 OVCAR10
[8] = Homo sapiens, 1205Lu, repeated in docking table, unit inferred, read-out: IC50 1205Lu

SMILES	IC50 (HCT116; [3])	IC50 (OVCAR 10; [4])	IC50 (1205Lu; [5])	IC50 (FHC; FHC)	melting point	other results
O=C1N(Cc2ccccc2)c2c(Br)cc(Br)cc2C1(O)CN1CCCC1 (stereo not shown) [Compound 4l]	91.5 ± 26.9 µM	94.3 ± 18 µM	91.6 ± 18.3 µM	94.8 ± 15.3 µM	–	–
O=C1N(Cc2ccccc2)c2c(Br)cc(Br)cc2C1(O)CN1CCCCC1 (stereo not shown) [Compound 4k, 1-Benzyl-5,7-dibromo-3-hydroxy-3-(piperidin-1ylmethyl)indolin-2-one]	110 ± 24.4 µM	91.2 ± 18.7 µM	89.9 ± 16.8 µM	88.6 ± 20.3 µM	170 to 172 °C	IC50 (HCT116; [6]): 110 µM; IC50 (OVCAR 10; [7]): 91.2 µM; IC50 (1205Lu; [8]): 89.9 µM
O=C1N(Cc2ccccc2)c2ccc(Cl)cc2C1(O)CN1CCOCC1 (stereo not shown) [Compound 4g, 1-Benzyl-5-chloro-3-hydroxy-3-(morpholinomethyl)indolin-2-one]	121 ± 17.1 µM	112 ± 11.7 µM	125 ± 19.8 µM	121 ± 21.2 µM	191 to 193 °C	–
O=c1[nH]cc(F)c(=O)[nH]1 [Compound 5-FU, 5-fluorouracil, reference compound]	22.3 ± 1.7 µM	22.4 ± 4.1 µM	15.4 ± 2.9 µM	21.3 ± 4.2 µM	–	IC50 (HCT116; [6]): 22.3 µM; SI HCT116 (HCT116): 0.95; SI OVCAR10 (OVCAR 10): 0.95; IC50 (OVCAR 10; [7]): 22.4 µM; IC50 (1205Lu; [8]): 15.4 µM; SI 1205Lu (1205Lu): 1.38
N.N.[Cl][Pt][Cl] [Cisplatin, cisplatin, reference compound]	–	18.2 ± 2.5 µM	–	–	–	IC50 (HCT116; MTS assay, 48 h treatment, colorectal carcinoma, read-out: IC50 (μM) ± SD HCT116): 12.1 ± 2.5 µM; SI HCT116 (HCT116): 2.07; SI OVCAR10 (OVCAR 10): 1.37; IC50 (1205Lu; MTS assay, 48 h treatment, human metastatic melanoma, read-out: IC50 (μM) ± SD 1205Lu): 19 ± 1.5 µM; SI 1205Lu (1205Lu): 1.3; IC50 (FHC): 25.1 ± 3.2 µM
O=C1N(Cc2ccccc2)c2c(Br)cc(Br)cc2C1(O)CN1CCOCC1 (stereo not shown) [Compound 4j, 1-Benzyl-5,7-dibromo-3-hydroxy-3-(morpholinomethyl)indolin-2-one]	9.63 ± 1.3 µM	8.56 ± 1.1 µM	12.2 ± 1.7 µM	20.6 ± 3.1 µM	–	IC50 (HCT116; [6]): 9.63 µM; SI HCT116 (HCT116): 2.12; SI OVCAR10 (OVCAR 10): 2.40; IC50 (OVCAR 10; [7]): 8.56 µM; IC50 (1205Lu; [8]): 12.2 µM; SI 1205Lu (1205Lu): 1.68; apoptotic cells, Annexin V/7-AAD (HCT-116 cells [1]; 24 h): 19.5%; apoptotic cells, Annexin V/7-AAD (HCT-116 cells [1]; 48 h): 46.15%; apoptotic cell population, Caspase 3/7 7-AAD (HCT-116 cells [2]; 24 h): 21.5%; apoptotic cell population, Caspase 3/7 7-AAD (HCT-116 cells [2]; 48 h): 57.9%
O=C1N(Cc2ccccc2)c2ccccc2C1(O)CN1CCOCC1 (stereo not shown) [Compound 4a, 1-Benzyl-3-hydroxy-3-(morpholinomethyl)indolin-2-one]	104 ± 25 µM	120 ± 15.4 µM	111 ± 18.9 µM	122 ± 13.2 µM	–	–
O=C1N(Cc2ccccc2)c2ccc(Cl)cc2C1(O)CN1CCCC1 (stereo not shown) [Compound 4i, 1-Benzyl-5-chloro-3-hydroxy-3-(pyrrolidin-1-ylmethyl)indolin-2-one]	93.4 ± 19.3 µM	81.5 ± 12.5 µM	96.4 ± 18.8 µM	96.5 ± 22.2 µM	121 to 124 °C	–
O=C1N(Cc2ccccc2)c2ccc(Cl)cc2C1(O)CN1CCCCC1 (stereo not shown) [Compound 4h]	117 ± 19.6 µM	130 ± 17.2 µM	110 ± 18.4 µM	106 ± 17.2 µM	–	–
O=C1N(Cc2ccccc2)c2ccccc2C1(O)CN1CCCCC1 (stereo not shown) [Compound 4b, 1-Benzyl-3-hydroxy-3-(piperidin-1-ylmethyl)indolin-2-one]	85.2 ± 15.3 µM	69.2 ± 16.2 µM	65.3 ± 15.3 µM	63.5 ± 22.2 µM	–	–
O=C1N(Cc2ccccc2)c2ccccc2C1(O)CN1CCCC1 (stereo not shown) [Compound 4c, 1-Benzyl-3-hydroxy-3-(pyrrolidin-1-ylmethyl)indolin-2-one]	65.9 ± 16.7 µM	61.2 ± 13.2 µM	78.2 ± 24 µM	76.3 ± 14.5 µM	169 to 171 °C	–
O=C1Nc2ccccc2C1(O)CN1CCOCC1 (stereo not shown) [Compound 4m, 3-Hydroxy-3-(morpholinomethyl)indolin-2-one]	95.4 ± 9.66 µM	92.3 ± 18.2 µM	99.7 ± 11.5 µM	89.4 ± 14.6 µM	–	–
O=C1N(Cc2ccccc2)c2ccc(Br)cc2C1(O)CN1CCOCC1 (stereo not shown) [Compound 4d, 1-Benzyl-5-bromo-3-hydroxy-3-(morpholinomethyl)indolin-2-one]	84.1 ± 19.4 µM	87.9 ± 13 µM	81.2 ± 15.1 µM	73.2 ± 19.6 µM	–	–
O=C1N(Cc2ccccc2)c2ccc(Br)cc2C1(O)CN1CCCCC1 (stereo not shown) [Compound 4e, 1-Benzyl-5-bromo-3-hydroxy-3-(piperidin-1-ylmethyl)indolin-2-one]	92.2 ± 17.2 µM	93.1 ± 15.6 µM	98 ± 13.2 µM	88.3 ± 16.9 µM	189 to 191 °C	–
O=C1N(Cc2ccccc2)c2ccc(Br)cc2C1(O)CN1CCCC1 (stereo not shown) [Compound 4f, 1-Benzyl-5-bromo-3-hydroxy-3-(pyrrolidin-1-ylmethyl)indolin-2-one]	85.3 ± 16 µM	88.5 ± 18.9 µM	85.6 ± 13.2 µM	81.3 ± 15.6 µM	144 to 146 °C	–
O=C1Nc2ccccc2C1(O)CN1CCCC1 (stereo not shown) [Compound 4o, 3-Hydroxy-3-(pyrrolidin-1-ylmethyl)indolin-2-one]	102 ± 18.7 µM	116 ± 11.8 µM	130 ± 14 µM	95.7 ± 13 µM	–	–
O=C1Nc2ccccc2C1(O)CN1CCCCC1 (stereo not shown) [Compound 4n, 3-Hydroxy-3-(piperidin-1-ylmethyl)indolin-2-one]	105 ± 23.3 µM	112 ± 21.3 µM	109 ± 24.7 µM	96.8 ± 18.5 µM	154 to 156 °C	–
